Measurements from patent US7691841B2, “Azetidine derivatives as CCR-3 receptor antagonist” (Novartis AG, priority 2004, dated 2010).
pIC50: −log10 of the molar value.

What follows are molecules tested against T1, human CCR-3 (Homo sapiens, UniProt P51677) (assay: binding of [125I]-human eotaxin to human CCR-3 (SPA assay)). Details: membranes of RBL-2H3 cells stably expressing CCR3; 50 pM [125I]-human eotaxin; 4 hours at room temperature; read-out: IC50 (concentration of test compound at which 50% inhibition of eotaxin binding occurs).
T1 construct: expressed in transfected cells; host or cells: rat basophil leukaemia (RBL-2H3) cells, membranes
T1 sequence (P51677 1-355): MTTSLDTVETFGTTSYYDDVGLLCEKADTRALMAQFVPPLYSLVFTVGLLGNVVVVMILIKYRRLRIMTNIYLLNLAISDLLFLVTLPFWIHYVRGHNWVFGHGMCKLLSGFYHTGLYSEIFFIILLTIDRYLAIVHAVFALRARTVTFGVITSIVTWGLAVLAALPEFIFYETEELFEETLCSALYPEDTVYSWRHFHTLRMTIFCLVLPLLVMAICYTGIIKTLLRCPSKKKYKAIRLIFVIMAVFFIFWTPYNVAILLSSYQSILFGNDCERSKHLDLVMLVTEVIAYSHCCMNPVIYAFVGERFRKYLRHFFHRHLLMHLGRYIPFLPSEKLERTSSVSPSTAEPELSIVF
Protocol: Compounds of formula I and their pharmaceutically acceptable salts are useful as pharmaceuticals. In particular, they inhibit human chemokine receptor CCR-3. The effect of compounds of the formula I, i.e. agents of the invention, on the binding of human eotaxin to human CCR-3 is determined by the following assay:
Recombinant cells expressing human CCR-3 are captured by wheatgerm agglutinin (WGA) polyvinyltoluidene (PVT) SPA beads (available from Marshal), through a specific interaction between the WGA and carbohydrate residues of glycoproteins on the surface of the cells. [^125I]-human eotaxin (available from Amersham) binds specifically to CCR-3 receptors bringing the [^125I]-human eotaxin in close proximity to the SPA beads. Emitted â-particles from the [^125I]-human eotaxin excite, by its proximity, the fluorophore in the beads and produce light.
Preparation of Assay Buffer: 5.96 g HEPES and 7.0 g sodium chloride are dissolved in distilled water and 1 M aqueous CaCl2 (1 ml) and 1M aqueous MgCl2 (5 ml) are added. The pH is adjusted to 7.6 with NaOH and the solution made to a final volume of 1 l using distilled water. 5 g bovine serum albumin and 0.1 g sodium azide are then dissolved in the solution and the resulting buffer stored at 4° C. A COMPLETE™ protease inhibitor cocktail tablet (available from Boehringer) is added per 50 ml of the buffer on the day of use.
Preparation of Homogenisation Buffer: Tris-base (2.42 g) is dissolved in distilled water, the pH of the solution is adjusted to 7.6 with hydrochloric acid and the solution is diluted with distilled water to a final volume of 1 l. The resulting buffer is stored at 4° C. A COMPLETE™ protease inhibitor cocktail tablet is added per 50 ml of the buffer on the day of use. […]
The assay is performed in a final volume of 250 μl per well of an OPTIPLATE™ microplate (ex Canberra Packard). […] The resulting scintillations are counted using a Canberra Packard TopCount, each well being counted for 1 minute. […]

pIC50	SMILES
6.53	O=C(CNC(=O)c1ccc(Cl)cc1)NCC1CN(Cc2ccc(Cl)c(Cl)c2)C1 [Example 5]
6.38	Cc1cc(C(=O)NCC(=O)NCC2CN(Cc3ccc(Cl)c(Cl)c3)C2)c(C)n1Cc1ccncc1 [Example 7]
6.70	CCOc1ccc2nc(SCC(=O)NCC3CN(Cc4ccc(Cl)c(Cl)c4)C3)sc2c1 [Example 8, N-[1-(3,4-Dichloro-benzyl)-azetidin-3-yl-methyl]-2-(6-ethoxy-benzothiazol-2-ylsulfanyl)-acetamide]
